Data published in patent US5451571A (The Cleveland Clinic Foundation, priority 1994, dated 1995).
Entries after “also recorded” stand apart in the source; their conditions may differ.

Tests used:
[1] = tested on: spontaneously hypertensive rats (SHR); experiment: Blood angiotensin peptides (RIA) after i.v. Ang I in conscious SHR with enzyme inhibitors; type: in vivo, rat
Protocol: (§1) All experiments were carried out in strict adherence to the principles sponsored by the American Physiological Society. Male 16-week-old SHR(319±4 gm) and WKY(315±4 gm) controls (Charles River, Wilmington, Mass.) were housed in rooms maintained on a 12 hr light-dark cycle. Animals ate a solid diet of rat chow (Purina, Bedford, Ohio) and had free access to water. Cannulas (PE-50 and PE-10, Clay Adams Becton Dickinson, Parsippany, N.J.) were implanted into a femoral artery and vein using aseptic conditions in rats anesthetized with 1% halothane 24 hours beforehand. The free ends of the cannulas were tunneled under the skin and externalized at the back of the neck.
(§2) Conscious rats were divided into five groups. Group I (n=4 SHR and 4 WKY) received an i.v. injection of 0.9% NaCl. Group II (n=4 SHR and 4 WKY) was given an i.v. injection of enalaprilat (MK-422,2 mg/kg). Group III (n=4 SHR and 4 WKY) was injected with (N-{N-[1-(S)-carboxy-3-phenylpropyl]-(S)-phenylalanyl}-(S)-isoserine) at a dose of 15 mg/kg. […] Group IV (n=4 SHR and 4 WKY) received both MK-422 (2 mg/kg) and SCH 39,370 (15 mg/kg). Group V (n=3 SHR and 3 WKY) were given MK- 422 (2 mg/kg) and Z-prolyl-prolinal (5 mg/kg), a specific inhibitor of prolyl endopeptidase (Friedman TC, Orlowski M, Wilk S: Prolyl Endopeptidase: Inhibition in vivo by N-benzyloxycarbonyl-prolyl-prolinal. J. Neurochem. 42:237-241,1984). Either saline (vehicle) or the enzyme inhibitors were administered 20 minutes before an i.v. injection of 0.2 ml of Ang I (2 nmol) in heparinized saline. Serial samples of arterial blood (0.2 ml) were rapidly collected into ice-chilled tubes containing 5 ml of 80% ethanol/0.1N HCL every 15-30 sec before and after injection of Ang I. The amount of blood removed in each sample was replaced with an equal volume of saline. The dead space (0.08 ml) of the femoral artery catheter was cleared of any remaining saline or blood before obtaining the samples.
(§3) Peptide Extraction and Analyses: Samples were centrifuged at 5,000 g for 20 minutes; the supernatant was stored for 12 hours at -20° C. After a second centrifugation step (10,000 g, 20 min) the supernatant was diluted 1:1 (V:V) with 1% heptaflurobutyric acid (HFBA), stored for 4-6 […] hours at 4° C., and centrifuged again at 15,000 g. This supernatant was further diluted 1:4 with 0.2% HFBA and concentrated on a Sep-Pak Vac Cartridge (Millipore Co., Milford, Mass.) activated beforehand with 3 ml of 60% acetonitrile/0.2% HFBA, 3 ml of 0.1% bovine serum albumin in 0.2% HFBA, and 5 ml of HFBA. After application of the supernatant, the column was washed with 10 ml of 0.2% HFBA. Angiotensin peptides were eluted with 8 ml of 60% acetonitrile/0.2% HFBA. Fractions were evaporated to dryness in a vacuum centrifuge (Savant Instrument Inc., Hicksville, N.Y.) for measurements by radioimmunoassay (RIA). Different aliquots of the samples were assayed to ensure linearity. Peptide recovery for Ang I added to the acid ethanol solution prior to blood sample averaged 85±4%, n=6, SFM): peptide values were not corrected for recovery. Moreover, no in vitro conversion of Ang I into either Ang-(1-7) or Ang II was observed.
(§4) The RIAs employed by the inventors to determine concentrations of Ang I, Ang II, and Ang-(1-7) are described in detail elsewhere. See, Chappell MC, Brosnihan KB, Diz DI, Ferrario CM: Identification of Angiotensin-(1-7) in Rat Brain: Evidence for Differential Processing of Agiotensin Peptides. J. Biol. Chem. […]:16518-16523,1989; and, Kohara K, Brosnihan KB, Chappell MC, Khosla MC, Ferrario CM: Angiotensin-(1-7): A Member of Circulating Angiotensin Peptides. Hypertension 17:131-138, 1991. […] The sensitivity of the Ang I assay (defined as twice the minimum detection level) averaged 5 fmol/tube. The Ang II antibody was produced by the inventors. […] The sensitivity of the Ang II RIA is 0.5 fmol/tube. The antibody of Ang-(1-7) (Core No. 1) was obtained in the inventors laboratory. […]

Wistar Kyoto (WKY) rats = experiment: Blood angiotensin peptides (RIA) after i.v. Ang I in conscious WKY with enzyme inhibitors; type: in vivo, rat
Protocol: as §1, §2, §3, §4

[2] = molecular target: T1, angiotensin converting enzyme (ACE) (Canis lupus familiaris, UniProt A0A8I3S3I6); experiment: ACE activity assay (Hip-His-Leu, fluorometric) in dog brain tissue homogenates; type: biochemical; conditions: 10 μM MK 422; read-out: inhibition of product released (ACE activity)
T1 construct: The ACE activity was determined by incubating 10 μl of the supernatants; from tissue; host or cells: dog brainstem, spinal cord, choroid plexus and neurohypophysis punches
T1 sequence (A0A8I3S3I6 31-1241): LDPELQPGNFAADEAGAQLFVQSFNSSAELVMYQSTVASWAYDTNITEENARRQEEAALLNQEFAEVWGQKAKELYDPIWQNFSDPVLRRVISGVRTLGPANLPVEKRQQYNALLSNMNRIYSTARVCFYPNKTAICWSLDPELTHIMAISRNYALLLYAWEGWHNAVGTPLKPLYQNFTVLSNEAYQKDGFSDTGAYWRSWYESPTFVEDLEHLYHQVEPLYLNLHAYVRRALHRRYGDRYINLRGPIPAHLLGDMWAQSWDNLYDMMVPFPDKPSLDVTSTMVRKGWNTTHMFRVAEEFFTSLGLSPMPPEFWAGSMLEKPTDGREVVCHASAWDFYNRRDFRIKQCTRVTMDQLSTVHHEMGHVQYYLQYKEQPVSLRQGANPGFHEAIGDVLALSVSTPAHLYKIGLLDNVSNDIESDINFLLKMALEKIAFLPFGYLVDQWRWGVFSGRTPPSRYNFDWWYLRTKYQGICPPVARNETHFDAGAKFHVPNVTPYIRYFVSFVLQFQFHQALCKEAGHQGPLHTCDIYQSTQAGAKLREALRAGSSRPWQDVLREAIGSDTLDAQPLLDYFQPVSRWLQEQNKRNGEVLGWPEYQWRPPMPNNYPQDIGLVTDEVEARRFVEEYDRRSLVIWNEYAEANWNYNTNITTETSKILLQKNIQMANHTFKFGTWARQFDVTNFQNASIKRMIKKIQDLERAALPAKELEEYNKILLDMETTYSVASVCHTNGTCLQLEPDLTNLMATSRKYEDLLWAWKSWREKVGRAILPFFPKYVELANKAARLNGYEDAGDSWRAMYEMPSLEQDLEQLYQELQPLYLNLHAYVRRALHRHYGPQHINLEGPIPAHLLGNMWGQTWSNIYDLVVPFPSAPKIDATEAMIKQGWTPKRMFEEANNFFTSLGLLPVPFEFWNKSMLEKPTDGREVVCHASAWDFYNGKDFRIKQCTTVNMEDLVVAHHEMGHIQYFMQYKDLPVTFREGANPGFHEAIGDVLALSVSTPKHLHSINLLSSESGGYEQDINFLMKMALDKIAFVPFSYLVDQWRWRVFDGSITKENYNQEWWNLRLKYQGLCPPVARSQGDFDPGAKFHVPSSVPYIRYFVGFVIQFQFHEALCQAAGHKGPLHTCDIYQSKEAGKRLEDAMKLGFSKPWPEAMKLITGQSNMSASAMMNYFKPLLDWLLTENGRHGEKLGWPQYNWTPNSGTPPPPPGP
Protocol: Larger tissue samples were homogenized to a final concentration of 100 mg tissue ml/buffer. The homogenates were centrifuged at 18,000 g for two minutes at 4° C. The ACE activity was determined by incubating 10 μl of the supernatants with 500 μl of an assay solution containing 5 mM Hip-His-Leu (Sigma Chemical, St. Louis, Mo., USA) in 0.4 M sodium borate buffer, pH 8.3, and 0.9 M NaCl for 15 minutes at 37° C.) (Santos R. A. S., Krieger, E. M., Greene, L. J., An Improved Fluorometric Assay of Rat Serum and Plasma Converting Enzyme. […] The product His-Leu was measured fluorometrically (365 nm excitation, 495 emission; Aminco spectrofluorometer, American Instruments, Silver Springs, Md., USA). In punches obtained from the brainstem, neurohypophysis, and choroid plexus, the rate of reaction was linear over a 20-minute period and with the volume of the sample assayed (5-15 ul). Under these conditions, hydrolysis of the product His-Leu (Sigma) was less than 6% as evaluated indirectly fluorometry (Santos, et al. supra). […] Tissue ACE specific activity was expressed as units corresponding to 1 nmol/min/mg protein.

[3] = molecular target: T1, angiotensin converting enzyme (ACE); experiment: Tissue ACE activity in dog brain six hours after i.v. MK 422; type: in vivo; conditions: six hours after MK 422 10 mg/kg i.v.
Protocol: Experiments were performed on fourteen mongrel dogs weighing 16±2 kg and anesthetized with sodium pentobarbital (30 mg/kg i.v.). […] Ten of the fourteen dogs were given a lethal dose of sodium pentobarbital, and the brain and thoracic portion of the spinal cord (C6-T3) were excised immediately. The brain was removed from four other dogs six hours after a single injection of MK 422 (enalaprilat) at a dose of 10 mg/kg i.v.
Coronal sections (2000 μm thick) from either the brainstem or the spinal cord were laid on a frozen Petri dish placed under the operating microscope. […] Punches from coronal sections of the intermediolateral column of the spinal cord were obtained between C6 and T3. Blocks of tissue were also taken from the area postrema at the obex, the neurohypophysis, and the choroid plexus in the fourth ventricle. Remaining coronal tissue sections were analyzed separately. All tissue samples were kept on dry ice and stored at -70° C. until assayed.
The ACE activity and angiotensin metabolism were measured in tissue samples obtained from five control and four MK 422-treated dogs.
Larger tissue samples were homogenized to a final concentration of 100 mg tissue ml/buffer. The homogenates were centrifuged at 18,000 g for two minutes at 4° C. The ACE activity was determined by incubating 10 μl of the supernatants with 500 μl of an assay solution containing 5 mM Hip-His-Leu (Sigma Chemical, St. Louis, Mo., USA) in 0.4 M sodium borate buffer, pH 8.3, and 0.9 M NaCl for 15 minutes at 37° C.) (Santos R. A. S., Krieger, E. M., Greene, L. J., An Improved Fluorometric Assay of Rat Serum and Plasma Converting Enzyme. […] The product His-Leu was measured fluorometrically (365 nm excitation, 495 emission; Aminco spectrofluorometer, American Instruments, Silver Springs, Md., USA). […] Under these conditions, hydrolysis of the product His-Leu (Sigma) was less than 6% as evaluated indirectly fluorometry (Santos, et al. supra). […] Tissue ACE specific activity was expressed as units corresponding to 1 nmol/min/mg protein.

prolylendopeptidase = experiment: 125I-Ang-(1-7) production from 125I-Ang I in dog hypothalamus homogenates (HPLC); type: biochemical
Protocol: As a result of these discoveries, the enzyme(s) involved in the production of Ang-(1-7) in homogenates (20 mM TRIS HCl buffer, pH 7.5) of dog hypothalamus were evaluated.

NG108 cells = experiment: Ang-(1-7) production from Ang I in NG108 cells; type: cell-based
SHR = experiment: Blood pressure effect of SCH 39,370 in SHR; type: in vivo, rat
carboxypeptidase A = molecular target: T2, carboxypeptidase A (Homo sapiens, UniProt P15085); conditions: cited from earlier work
T2 sequence (P15085 111-419): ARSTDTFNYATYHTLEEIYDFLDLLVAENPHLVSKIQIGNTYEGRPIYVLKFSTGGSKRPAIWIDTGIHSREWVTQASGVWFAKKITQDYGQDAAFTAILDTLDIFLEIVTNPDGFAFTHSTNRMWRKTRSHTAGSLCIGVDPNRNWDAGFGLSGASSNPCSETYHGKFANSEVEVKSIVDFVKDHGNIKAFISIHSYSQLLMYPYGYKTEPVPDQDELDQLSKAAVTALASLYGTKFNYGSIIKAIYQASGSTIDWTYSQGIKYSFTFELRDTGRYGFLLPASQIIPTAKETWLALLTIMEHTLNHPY

NEP 24.11 = conditions: cited from earlier work
[4] = tested on: DOCA-salt hypertensive rats; conditions: cited from earlier work
ACE = ACE (Homo sapiens, UniProt P12821); conditions: cited from earlier work
ACE, sequence (P12821 30-1306, species assumed): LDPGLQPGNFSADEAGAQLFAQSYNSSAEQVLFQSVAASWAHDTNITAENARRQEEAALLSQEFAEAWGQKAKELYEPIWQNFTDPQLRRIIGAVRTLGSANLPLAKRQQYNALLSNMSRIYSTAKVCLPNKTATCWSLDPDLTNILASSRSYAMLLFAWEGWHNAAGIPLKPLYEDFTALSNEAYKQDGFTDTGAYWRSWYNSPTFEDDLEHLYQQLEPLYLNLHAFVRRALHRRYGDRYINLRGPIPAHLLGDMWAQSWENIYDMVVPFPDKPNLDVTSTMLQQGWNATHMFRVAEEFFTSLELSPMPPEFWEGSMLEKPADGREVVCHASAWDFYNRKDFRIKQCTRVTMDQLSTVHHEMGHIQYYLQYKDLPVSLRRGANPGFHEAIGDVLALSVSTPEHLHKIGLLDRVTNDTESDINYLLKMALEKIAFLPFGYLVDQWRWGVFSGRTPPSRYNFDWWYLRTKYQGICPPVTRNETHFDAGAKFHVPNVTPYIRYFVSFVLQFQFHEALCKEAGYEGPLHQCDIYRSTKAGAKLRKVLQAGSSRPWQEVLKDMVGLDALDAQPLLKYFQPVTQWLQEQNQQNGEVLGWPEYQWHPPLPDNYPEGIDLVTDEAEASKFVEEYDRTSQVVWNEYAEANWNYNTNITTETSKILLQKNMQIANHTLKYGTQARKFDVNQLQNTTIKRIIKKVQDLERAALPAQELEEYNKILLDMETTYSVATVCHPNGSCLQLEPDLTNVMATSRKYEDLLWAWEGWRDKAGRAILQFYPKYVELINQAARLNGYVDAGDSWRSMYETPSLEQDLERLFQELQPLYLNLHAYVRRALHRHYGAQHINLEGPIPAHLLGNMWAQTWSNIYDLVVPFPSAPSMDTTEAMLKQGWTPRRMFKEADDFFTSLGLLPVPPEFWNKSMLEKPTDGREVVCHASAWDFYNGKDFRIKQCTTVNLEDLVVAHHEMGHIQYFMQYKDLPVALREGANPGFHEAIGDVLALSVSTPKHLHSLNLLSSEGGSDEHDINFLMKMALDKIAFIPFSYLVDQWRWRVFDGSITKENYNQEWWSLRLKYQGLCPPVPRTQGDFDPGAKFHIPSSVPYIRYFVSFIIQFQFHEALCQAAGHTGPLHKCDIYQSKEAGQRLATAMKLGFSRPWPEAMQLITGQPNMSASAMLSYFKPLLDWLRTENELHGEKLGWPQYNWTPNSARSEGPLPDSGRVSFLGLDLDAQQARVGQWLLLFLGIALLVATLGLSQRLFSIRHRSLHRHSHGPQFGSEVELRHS

C[C@H](N[C@@H](CCc1ccccc1)C(=O)O)C(=O)N1CCC[C@H]1C(=O)O [MK 422, enalaprilat]
increase of peak Ang-(1-7) over values found in control rats ([1]; SHR, MK-422 2 mg/kg): three-fold
Ang II formation / production ([1]; SHR, after Ang I 2 nmol i.v.): eliminated
increase of peak Ang-(1-7) over values found in control rats (Wistar Kyoto (WKY) rats; MK-422 2 mg/kg): two-fold
Ang II formation / production (Wistar Kyoto (WKY) rats; after Ang I 2 nmol i.v.): eliminated
inhibition at 10 µM [2]: 98%
ACE activity in homogenates from the choroid plexus [3]: 14.9±0.6 U
ACE activity in other regions of the brainstem [3]: did not change
ACE activity in the A2 region (between -2 and +4 mm of the obex) ([3]; untreated controls 22.5±1.6 U): 16.7±1.7 U

CC(C)C[C@H](NP(=O)(O)O[C@@H]1O[C@@H](C)[C@H](O)[C@@H](O)[C@H]1O)C(=O)N[C@@H](Cc1c[nH]c2ccccc12)C(=O)O [Phosphoramidon]
inhibition of Ang-(1-7) formation (prolylendopeptidase): 12%
production of Ang-(1-7) in the presence of the inhibitor (prolylendopeptidase; canine hypothalamic homogenates): not inhibited
production of Ang-(1-7) in the presence of the inhibitor (NG108 cells): not inhibited

O=C(O)[C@H](CCc1ccccc1)N[C@@H](Cc1ccccc1)C(=O)NC[C@H](O)C(=O)O [SCH 39,370, N-{N-[1-(S)-carboxy-3-phenylpropyl]-(S)-phenylalanyl}-(S)-isoserine]
reduction of peak levels of Ang-(1-7) below vehicle ([1]; SHR): 74%
peak level of Ang I in blood ([1]; SHR, 15 seconds after Ang I 2 nmol i.v., saline (label Ang I) or SCH 39,370 15 mg/kg 20 minutes before): 6.2 ± 0.4 pmol/mL
peak level of Ang II in blood ([1]; SHR, 15 seconds after Ang I 2 nmol i.v., saline (label Ang I) or SCH 39,370 15 mg/kg before): 27.2 ± 3.8 pmol/mL
change of baseline and peak plasma levels of Ang II ([1]; SHR, SCH 39,370): double
formation / levels of Ang-(1-7) versus vehicle ([1]; SHR, SCH 39,370 15 mg/kg alone, difference statistically significant): decreased; also recorded: inhibited the formation of Ang-(1-7)
baseline level of Ang II ([1]; SHR, after SCH 39,370 15 mg/kg, before 0.02±0.02): 0.18 ± 0.04 pmol/mL
inhibition of Ang-(1-7) production at larger doses ([1]; preliminary experiments, doses above 15 mg/kg, strain not stated): no further inhibition
effect on blood pressure (SHR): did not reduce blood pressure
inhibition of carboxypeptidase A (carboxypeptidase A): does not inhibit
inhibition of NEP 24.11 (NEP 24.11): specific and potent inhibitor
effect on blood pressure [4]: antihypertensive effects
reduction of peak levels of Ang-(1-7) below vehicle (Wistar Kyoto (WKY) rats): 51%
peak level of Ang I in blood (Wistar Kyoto (WKY) rats; 15 seconds after Ang I 2 nmol i.v., saline (label Ang I) or SCH 39,370 15 mg/kg 20 minutes before): 4.3 ± 0.4 pmol/mL
peak level of Ang II in blood (Wistar Kyoto (WKY) rats; 15 seconds after Ang I 2 nmol i.v., saline (label Ang I) or SCH 39,370 15 mg/kg before): 21.8 ± 5.4 pmol/mL
change of baseline and peak plasma levels of Ang II (Wistar Kyoto (WKY) rats; SCH 39,370): double
formation of Ang-(1-7) versus vehicle (Wistar Kyoto (WKY) rats; SCH 39,370 15 mg/kg alone, difference not significant (p>0.05)): inhibited the formation of Ang-(1-7)
baseline level of Ang II (Wistar Kyoto (WKY) rats; after SCH 39,370 15 mg/kg, before 0.04±0.02): 0.12 ± 0.04 pmol/mL
inhibition of ACE (ACE): does not inhibit
